In experiment [1] the target is Tyrosine-protein kinase JAK2 (Homo sapiens) (UniProt O60674). The experiment is described as follows: Residual activity of JAK2 at 1 uM by microplate scintillation counting.
Experiment [2] concerns the target Rho-associated protein kinase 1 (Homo sapiens) (UniProt Q13464). The experiment is described as follows: Residual activity of ROCK1 at 1 uM by microplate scintillation counting.
Experiment [3] addresses T1, cGMP-dependent protein kinase 1 (Homo sapiens) (UniProt Q13976).
T1 sequence (whole entry): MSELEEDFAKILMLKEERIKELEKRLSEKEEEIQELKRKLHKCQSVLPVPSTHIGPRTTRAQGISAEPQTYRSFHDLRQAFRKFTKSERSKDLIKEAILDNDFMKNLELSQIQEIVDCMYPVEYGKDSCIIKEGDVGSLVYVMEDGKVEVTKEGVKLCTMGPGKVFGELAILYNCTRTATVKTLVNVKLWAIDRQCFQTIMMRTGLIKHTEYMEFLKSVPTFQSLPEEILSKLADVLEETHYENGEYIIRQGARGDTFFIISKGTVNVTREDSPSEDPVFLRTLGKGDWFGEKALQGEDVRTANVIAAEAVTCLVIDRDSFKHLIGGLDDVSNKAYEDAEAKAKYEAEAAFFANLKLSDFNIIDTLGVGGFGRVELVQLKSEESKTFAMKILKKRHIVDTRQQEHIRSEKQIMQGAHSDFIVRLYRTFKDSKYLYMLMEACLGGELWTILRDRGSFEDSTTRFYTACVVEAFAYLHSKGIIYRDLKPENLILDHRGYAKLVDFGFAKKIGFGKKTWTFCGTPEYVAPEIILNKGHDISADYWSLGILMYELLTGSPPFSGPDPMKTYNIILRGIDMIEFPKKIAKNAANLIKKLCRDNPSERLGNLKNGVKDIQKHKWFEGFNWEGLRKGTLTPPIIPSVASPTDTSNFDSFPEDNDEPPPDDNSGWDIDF
The experiment is described as follows: Residual activity of PRKG1 at 1 uM by microplate scintillation counting.

Experiment [4] deals with T2, Tyrosine-protein kinase Tec (Homo sapiens) (UniProt P42680).
T2 sequence (whole entry): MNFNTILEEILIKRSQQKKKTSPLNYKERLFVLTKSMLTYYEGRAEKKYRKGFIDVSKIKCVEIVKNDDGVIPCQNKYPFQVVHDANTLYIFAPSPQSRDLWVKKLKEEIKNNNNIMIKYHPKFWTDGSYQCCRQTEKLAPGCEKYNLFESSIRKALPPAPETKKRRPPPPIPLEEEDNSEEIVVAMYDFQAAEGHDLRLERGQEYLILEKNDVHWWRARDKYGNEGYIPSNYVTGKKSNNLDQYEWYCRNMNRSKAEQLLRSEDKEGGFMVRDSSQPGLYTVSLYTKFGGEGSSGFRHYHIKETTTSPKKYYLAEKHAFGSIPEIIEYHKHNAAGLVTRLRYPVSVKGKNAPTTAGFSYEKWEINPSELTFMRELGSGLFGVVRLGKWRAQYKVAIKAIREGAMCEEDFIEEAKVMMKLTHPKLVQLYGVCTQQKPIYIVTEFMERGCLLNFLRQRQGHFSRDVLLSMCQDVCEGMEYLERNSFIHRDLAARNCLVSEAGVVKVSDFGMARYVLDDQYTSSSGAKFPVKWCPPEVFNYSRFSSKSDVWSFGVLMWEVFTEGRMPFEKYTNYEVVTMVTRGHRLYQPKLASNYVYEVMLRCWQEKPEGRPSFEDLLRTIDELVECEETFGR
The experiment is described as follows: Residual activity of TEC at 10 uM by microplate scintillation counting.

Experiment [5] deals with Death-associated protein kinase 1 (Homo sapiens) (UniProt P53355). The experiment is described as follows: Residual activity of DAPK1 at 1 uM by microplate scintillation counting.
Chain of Death-associated protein kinase 1 (Homo sapiens) (P53355 whole entry, looked up): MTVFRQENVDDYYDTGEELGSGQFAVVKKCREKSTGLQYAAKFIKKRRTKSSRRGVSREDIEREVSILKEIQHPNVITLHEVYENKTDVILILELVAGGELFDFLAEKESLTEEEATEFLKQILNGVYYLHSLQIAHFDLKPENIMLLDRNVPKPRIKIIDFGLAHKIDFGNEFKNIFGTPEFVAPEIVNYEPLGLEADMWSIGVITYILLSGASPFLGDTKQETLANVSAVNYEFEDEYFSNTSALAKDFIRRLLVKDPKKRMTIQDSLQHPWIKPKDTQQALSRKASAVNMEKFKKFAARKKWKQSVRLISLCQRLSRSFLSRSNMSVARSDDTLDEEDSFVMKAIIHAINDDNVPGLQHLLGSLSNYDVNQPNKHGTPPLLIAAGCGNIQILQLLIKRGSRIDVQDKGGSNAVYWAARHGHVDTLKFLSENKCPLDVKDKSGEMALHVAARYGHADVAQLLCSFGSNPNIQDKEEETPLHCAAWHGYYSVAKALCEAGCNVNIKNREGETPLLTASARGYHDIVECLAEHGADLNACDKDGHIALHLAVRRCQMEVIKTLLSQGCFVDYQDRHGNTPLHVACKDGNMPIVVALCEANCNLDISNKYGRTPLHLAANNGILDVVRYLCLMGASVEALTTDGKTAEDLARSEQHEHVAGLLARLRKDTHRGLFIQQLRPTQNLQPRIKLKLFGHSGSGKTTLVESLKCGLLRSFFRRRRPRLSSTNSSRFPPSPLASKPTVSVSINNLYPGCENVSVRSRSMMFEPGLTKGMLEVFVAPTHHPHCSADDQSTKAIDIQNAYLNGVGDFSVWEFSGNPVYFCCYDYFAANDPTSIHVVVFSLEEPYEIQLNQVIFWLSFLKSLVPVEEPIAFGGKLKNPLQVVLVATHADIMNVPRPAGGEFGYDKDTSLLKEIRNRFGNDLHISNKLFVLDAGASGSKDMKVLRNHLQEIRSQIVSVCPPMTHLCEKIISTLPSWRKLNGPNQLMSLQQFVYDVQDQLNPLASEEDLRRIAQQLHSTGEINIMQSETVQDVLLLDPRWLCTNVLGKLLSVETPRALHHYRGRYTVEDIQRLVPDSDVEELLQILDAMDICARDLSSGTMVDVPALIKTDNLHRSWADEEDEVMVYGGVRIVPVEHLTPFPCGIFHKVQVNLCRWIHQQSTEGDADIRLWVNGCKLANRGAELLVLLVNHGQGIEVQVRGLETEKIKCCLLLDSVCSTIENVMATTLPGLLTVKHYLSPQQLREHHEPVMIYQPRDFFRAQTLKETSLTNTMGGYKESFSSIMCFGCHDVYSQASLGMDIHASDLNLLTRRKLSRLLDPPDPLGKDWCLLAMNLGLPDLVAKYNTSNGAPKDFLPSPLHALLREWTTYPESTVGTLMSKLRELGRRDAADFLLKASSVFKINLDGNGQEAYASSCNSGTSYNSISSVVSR
Experiment [6] deals with Cyclin-dependent kinase 7/ cyclin H (Homo sapiens) (UniProt P51946+P50613). The experiment is described as follows: Residual activity of CDK7/CyclinH/MAT1 at 0.1 uM by microplate scintillation counting. It is filed as protein-complex assay.
Experiment [7] concerns the target Ribosomal protein S6 kinase alpha-3 (Homo sapiens) (UniProt P51812). The experiment is described as follows: Residual activity of RPS6KA3 at 0.1 uM by microplate scintillation counting.
Experiment [8] deals with Activated CDC42 kinase 1 (Homo sapiens) (UniProt Q07912). The experiment is described as follows: Residual activity of ACK1 at 10 uM by microplate scintillation counting.
Chain of Activated CDC42 kinase 1 (Homo sapiens) (Q07912 whole entry, looked up): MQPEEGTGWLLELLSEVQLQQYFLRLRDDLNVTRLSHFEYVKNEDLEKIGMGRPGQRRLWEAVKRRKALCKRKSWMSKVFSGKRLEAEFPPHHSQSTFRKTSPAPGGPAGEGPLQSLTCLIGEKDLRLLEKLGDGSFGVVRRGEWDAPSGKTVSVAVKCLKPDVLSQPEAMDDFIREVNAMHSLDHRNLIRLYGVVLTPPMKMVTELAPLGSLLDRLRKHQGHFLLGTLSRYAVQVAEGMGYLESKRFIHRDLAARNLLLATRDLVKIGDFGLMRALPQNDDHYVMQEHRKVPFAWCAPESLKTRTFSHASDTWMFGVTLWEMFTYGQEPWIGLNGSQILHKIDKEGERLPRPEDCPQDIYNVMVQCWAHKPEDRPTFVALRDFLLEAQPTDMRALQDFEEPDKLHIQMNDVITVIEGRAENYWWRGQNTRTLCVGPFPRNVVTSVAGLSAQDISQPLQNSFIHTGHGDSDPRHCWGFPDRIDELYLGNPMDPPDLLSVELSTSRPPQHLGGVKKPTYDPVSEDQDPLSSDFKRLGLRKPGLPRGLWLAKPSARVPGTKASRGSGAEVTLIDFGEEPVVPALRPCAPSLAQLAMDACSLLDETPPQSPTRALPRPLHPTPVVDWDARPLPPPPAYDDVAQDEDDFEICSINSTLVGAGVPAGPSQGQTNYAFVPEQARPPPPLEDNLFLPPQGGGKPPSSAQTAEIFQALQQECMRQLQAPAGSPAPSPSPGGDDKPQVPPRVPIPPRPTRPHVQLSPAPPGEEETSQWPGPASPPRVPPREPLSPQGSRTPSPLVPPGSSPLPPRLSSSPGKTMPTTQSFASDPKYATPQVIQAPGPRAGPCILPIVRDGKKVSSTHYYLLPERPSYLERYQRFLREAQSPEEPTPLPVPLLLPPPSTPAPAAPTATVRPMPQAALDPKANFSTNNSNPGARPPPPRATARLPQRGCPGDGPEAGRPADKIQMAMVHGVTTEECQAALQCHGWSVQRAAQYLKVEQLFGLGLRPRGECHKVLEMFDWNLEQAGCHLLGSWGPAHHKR
The target of experiment [9] is T3, Protein kinase C epsilon type (Homo sapiens) (UniProt Q02156).
T3 sequence (whole entry): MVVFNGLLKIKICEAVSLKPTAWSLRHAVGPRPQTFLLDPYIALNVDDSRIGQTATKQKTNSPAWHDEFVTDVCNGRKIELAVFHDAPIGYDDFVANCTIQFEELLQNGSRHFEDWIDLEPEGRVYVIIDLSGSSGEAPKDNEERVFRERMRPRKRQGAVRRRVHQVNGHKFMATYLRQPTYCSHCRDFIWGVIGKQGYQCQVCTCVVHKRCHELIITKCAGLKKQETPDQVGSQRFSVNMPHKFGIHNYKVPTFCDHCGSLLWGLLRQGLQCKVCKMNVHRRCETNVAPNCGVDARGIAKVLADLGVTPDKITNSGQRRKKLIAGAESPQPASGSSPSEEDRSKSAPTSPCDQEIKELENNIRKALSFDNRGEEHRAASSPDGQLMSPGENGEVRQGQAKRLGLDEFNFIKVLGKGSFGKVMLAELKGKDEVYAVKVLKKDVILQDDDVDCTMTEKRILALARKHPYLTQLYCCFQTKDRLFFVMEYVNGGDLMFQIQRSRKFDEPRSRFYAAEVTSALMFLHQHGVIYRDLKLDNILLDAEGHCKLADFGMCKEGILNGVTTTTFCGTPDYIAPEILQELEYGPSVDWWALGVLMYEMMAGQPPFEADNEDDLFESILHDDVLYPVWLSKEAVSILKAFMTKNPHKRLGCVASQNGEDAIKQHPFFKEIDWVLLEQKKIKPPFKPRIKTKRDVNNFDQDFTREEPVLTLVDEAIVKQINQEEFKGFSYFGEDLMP
The experiment is described as follows: Residual activity of PKCepsilon at 10 uM by microplate scintillation counting.

Experiment [10] has as its target T4, Serine/threonine-protein kinase 17A (Homo sapiens) (UniProt Q9UEE5).
T4 sequence (whole entry): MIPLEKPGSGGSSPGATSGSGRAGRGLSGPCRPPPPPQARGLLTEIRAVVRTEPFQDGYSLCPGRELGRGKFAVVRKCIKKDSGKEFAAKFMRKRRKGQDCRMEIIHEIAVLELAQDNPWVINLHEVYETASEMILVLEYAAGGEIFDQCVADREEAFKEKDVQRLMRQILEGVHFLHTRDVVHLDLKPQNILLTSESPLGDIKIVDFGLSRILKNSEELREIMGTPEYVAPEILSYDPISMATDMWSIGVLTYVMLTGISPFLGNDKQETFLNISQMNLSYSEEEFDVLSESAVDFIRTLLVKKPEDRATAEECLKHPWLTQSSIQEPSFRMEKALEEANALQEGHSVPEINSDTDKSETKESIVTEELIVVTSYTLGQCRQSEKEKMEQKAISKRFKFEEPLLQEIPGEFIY
The experiment is described as follows: Residual activity of STK17A at 0.1 uM by microplate scintillation counting.

The target of experiment [11] is Serine/threonine-protein kinase Nek6 (Homo sapiens) (UniProt Q9HC98). The experiment is described as follows: Residual activity of NEK6 at 0.1 uM by microplate scintillation counting.
Chain of Serine/threonine-protein kinase Nek6 (Homo sapiens) (Q9HC98 whole entry): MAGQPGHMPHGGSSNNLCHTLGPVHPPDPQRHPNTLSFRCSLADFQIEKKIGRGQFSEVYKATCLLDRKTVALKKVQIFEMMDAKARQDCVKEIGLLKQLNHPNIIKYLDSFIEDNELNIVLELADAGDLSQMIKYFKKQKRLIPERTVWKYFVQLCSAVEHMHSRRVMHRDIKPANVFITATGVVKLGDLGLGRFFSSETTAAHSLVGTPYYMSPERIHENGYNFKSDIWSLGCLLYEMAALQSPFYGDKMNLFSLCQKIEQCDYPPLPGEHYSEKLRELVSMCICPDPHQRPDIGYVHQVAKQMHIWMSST

Chain of Ribosomal protein S6 kinase alpha-3 (Homo sapiens) (P51812 whole entry): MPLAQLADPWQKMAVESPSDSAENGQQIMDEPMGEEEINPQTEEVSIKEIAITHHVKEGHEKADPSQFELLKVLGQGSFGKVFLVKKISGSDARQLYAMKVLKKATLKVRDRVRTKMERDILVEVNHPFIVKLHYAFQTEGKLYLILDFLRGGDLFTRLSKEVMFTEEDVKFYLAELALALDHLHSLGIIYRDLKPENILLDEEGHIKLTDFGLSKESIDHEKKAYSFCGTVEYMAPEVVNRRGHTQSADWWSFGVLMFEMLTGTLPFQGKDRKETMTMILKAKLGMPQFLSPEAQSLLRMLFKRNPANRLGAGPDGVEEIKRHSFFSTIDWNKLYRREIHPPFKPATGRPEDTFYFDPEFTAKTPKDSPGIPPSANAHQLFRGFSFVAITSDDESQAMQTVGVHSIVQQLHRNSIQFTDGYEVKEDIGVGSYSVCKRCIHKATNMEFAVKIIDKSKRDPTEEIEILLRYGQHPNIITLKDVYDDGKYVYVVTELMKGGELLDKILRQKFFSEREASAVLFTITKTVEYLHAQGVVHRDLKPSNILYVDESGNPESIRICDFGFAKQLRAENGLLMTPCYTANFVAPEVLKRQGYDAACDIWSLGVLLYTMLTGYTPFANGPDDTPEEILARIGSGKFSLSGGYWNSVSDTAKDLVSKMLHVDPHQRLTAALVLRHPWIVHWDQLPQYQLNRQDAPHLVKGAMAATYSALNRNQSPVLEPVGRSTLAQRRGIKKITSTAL
Chain of Rho-associated protein kinase 1 (Homo sapiens) (Q13464 2-1354 limits assumed): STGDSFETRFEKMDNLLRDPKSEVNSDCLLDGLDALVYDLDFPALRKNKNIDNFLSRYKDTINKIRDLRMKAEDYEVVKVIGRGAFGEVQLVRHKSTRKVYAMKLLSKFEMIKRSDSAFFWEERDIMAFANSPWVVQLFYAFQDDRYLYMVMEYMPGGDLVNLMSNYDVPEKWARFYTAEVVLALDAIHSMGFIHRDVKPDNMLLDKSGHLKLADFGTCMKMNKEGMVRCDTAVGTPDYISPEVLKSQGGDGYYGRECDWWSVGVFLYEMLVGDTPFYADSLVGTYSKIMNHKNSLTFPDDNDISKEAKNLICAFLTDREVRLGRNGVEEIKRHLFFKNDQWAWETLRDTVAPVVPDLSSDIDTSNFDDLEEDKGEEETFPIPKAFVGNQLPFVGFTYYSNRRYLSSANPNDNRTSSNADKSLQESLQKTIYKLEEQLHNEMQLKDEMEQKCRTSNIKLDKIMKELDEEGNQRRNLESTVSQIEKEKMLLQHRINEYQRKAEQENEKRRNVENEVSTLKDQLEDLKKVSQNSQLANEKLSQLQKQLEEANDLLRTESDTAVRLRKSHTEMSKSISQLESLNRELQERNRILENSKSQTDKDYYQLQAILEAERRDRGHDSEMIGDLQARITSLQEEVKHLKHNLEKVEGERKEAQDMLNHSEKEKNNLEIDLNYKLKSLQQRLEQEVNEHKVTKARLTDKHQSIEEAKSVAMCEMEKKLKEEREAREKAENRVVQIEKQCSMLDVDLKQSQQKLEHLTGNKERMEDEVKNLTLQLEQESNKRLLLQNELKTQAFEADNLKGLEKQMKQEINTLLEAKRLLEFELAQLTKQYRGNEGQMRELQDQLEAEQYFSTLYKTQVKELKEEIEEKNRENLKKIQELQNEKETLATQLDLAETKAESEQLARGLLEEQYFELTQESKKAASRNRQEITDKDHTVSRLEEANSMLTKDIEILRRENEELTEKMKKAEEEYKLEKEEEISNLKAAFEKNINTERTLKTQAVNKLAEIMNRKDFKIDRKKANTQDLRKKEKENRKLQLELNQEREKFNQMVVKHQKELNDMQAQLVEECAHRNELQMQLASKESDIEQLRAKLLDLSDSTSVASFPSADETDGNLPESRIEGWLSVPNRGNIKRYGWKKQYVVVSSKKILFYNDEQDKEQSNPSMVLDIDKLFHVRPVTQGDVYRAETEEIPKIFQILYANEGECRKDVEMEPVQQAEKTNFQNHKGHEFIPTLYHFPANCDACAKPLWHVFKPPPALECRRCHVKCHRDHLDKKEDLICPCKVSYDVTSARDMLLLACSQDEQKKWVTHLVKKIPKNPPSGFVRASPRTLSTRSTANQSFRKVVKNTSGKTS

In the case of `COc1cc2c(Oc3ccc(-c4nc5ccccc5s4)cc3F)ncnc2cc1OCCCN1CCN(C)CC1`, the residual activity in [1] turned out to be 97%; in experiment [2], 105%; in experiment [3], 97%; in experiment [4] it was 25%; in experiment [5] it was 90%; in [6], 86%. Also, the residual activity in experiment [7] was found to be 95%; in experiment [8], 40%; in experiment [9], 135%; in experiment [10] it was 87%; in experiment [11] it was 98%.
With `COc1cc2c(Oc3ccc(-c4nc5ccccc5s4)cc3)ncnc2cc1OCCCN1CCN(C)CC1`, the residual activity in experiment [1] was 96%; in [2], 102%; in experiment [3], 87%; in experiment [4], 61%; in experiment [5], 81%; in [6], 104%. The residual activity turned out to be 93% in experiment [7]; 35% in [8]; 128% in experiment [9]; 66% in experiment [10]; 93% in [11].
With `COc1cc2c(Oc3ccc(-c4nc5ccccc5s4)cc3)ncnc2cc1OCCCN1CCCC1`, the residual activity in experiment [1] turned out to be 95%; in [2], 93%; in experiment [3], 101%; in experiment [4], 45%; in [5], 86%; in experiment [6], 97%. In addition, the residual activity in experiment [7] amounted to 94%; in experiment [8], 31%; in [9] it was 142%; in experiment [10], 66%; in experiment [11], 93%.

The record behind these values is ChEMBL document CHEMBL1152560, “Substituted 2-arylbenzothiazoles as kinase inhibitors: hit-to-lead optimization” (Bioorg Med Chem, 2009).
